Reference: patent US8637050B2, “Peptide vaccines against group A streptococci” (The United States of America, as represented by the …, priority 2001, dated 2014)
No end group written: not given here.

Experiments:
streptococci (GAS) = experiment: Nasopharyngeal colonization challenge in vaccinated mice; assay type: in vivo; conditions: vaccinated mice relative to alum-only control mice; nasal wash 24 hours after 10^4 CFU challenge
Procedure: (§1) Mice (6 week old female Swiss Webster, Harley-Sprague) were immunized subcutaneously (s.c.) with either the peptide in alum or alum alone for control groups. Peptides were rotated in the alum mixture for 2 hours at 4° C. and stored at 4° C. overnight prior to use.
(§2) Mice were challenged intranasally one week after the final booster injection was administered. Prior to being challenged, mice were anesthetized with a ketamine/xylazine mixture. Mice were then given 10^4-10^5 CFU (10 μl) of streptococci intranasally via a microliter pipette. They were sacrificed 24 hours after the challenge and the nasopharyngeal passages were washed with approximately 100 μl physiological saline which was collected and immediately placed on ice. Dilutions of the wash were then plated on trypticase soy agar plates (5% sheep blood) and incubated at 37° C. for 18 hours to quantitate viable organisms. Nasopharyngeal colonization in immunized mice was compared to non-immunized controls. Statistical analysis of the NP data was accomplished using the t-test and rank sum test.
Nasopharyngeal (NP) colonization challenge experiments were performed on mice vaccinated (s.c.) with either M3-1 or M3-2 peptide in alum in comparison to control animals which received alum only. The nasopharyngeal colonization challenge was performed by doing a nasal wash 24 hours after challenge. […]

[1] = test system: rabbit sera prepared against whole M protein; experiment: ELISA: peptide recognition by anti-M protein rabbit sera; assay type: binding; conditions: for immunoreactivity of peptide with anti-M protein rabbit sera (ELISA): rabbit sera against whole M protein of the respective serotype
Procedure: Overlapping peptides representing each M type were assessed for their immunogenicity using ELISA and dot-immunoblot.
(§3) Levels of anti-M protein antibodies in mouse sera were determined by an enzyme-linked immunosorbent assay (ELISA) using either synthetic peptides or whole M protein as antigen. Microtiter plates (DYNEX Immulon 2 HB) were coated with 10 μg/ml antigen in 10 mM phosphate-buffered saline (PBS) at 4° C. overnight. Plates were rinsed three times with wash buffer (0.05% Tween 20 in 10 mM PBS, pH 7.2) and blocked with 1% BSA in PBS for one hour at 37° C. The appropriate test sera were applied at a starting dilution of 1:1000 and serially diluted two fold down the plate in PBS. Plates were incubated at 37° C. for 30 minutes and subsequently rinsed three times. Goat anti-rabbit or goat anti-mouse Ig-peroxidase conjugate diluted 1:10,000 in PBS was added to all wells and incubated for two hours at 37° C. Plates were rinsed three times with wash buffer and freshly prepared TMB peroxidase (Kirkegaard and Perry Laboratories) was added. Reactions were quenched with 0.18 M H2SO4 after 30 minutes at room temperature and OD450 was measured with a Labsystems Multiskan plate reader using Ascent software. ELISA titers are expressed as the reciprocal of the last dilution which gave a reading OD450>0.10.
The immunoreactivity of several synthetic peptides was determined by ELISA using rabbit sera prepared against whole M protein. The synthetic peptides are representative of relatively small portions of the M protein N-terminus; therefore, it was advantageous to determine if the epitopes contained within particular peptides were immunoreactive with sera prepared against whole M protein. It was shown that the whole anti-M protein rabbit sera of the respective serotypes could bind to each of the synthetic peptides within that serotype. However, some peptides were more highly immunoreactive than others, thus being better suited for use in the animal studies.

[2] = test system: anti-M protein antibodies in mouse sera; experiment: ELISA of sera of mice immunized s.c. with peptide in alum (immunogenicity); assay type: in vivo, mice (Swiss Webster)
Procedure: as §3, §1

GAS M type M43 = experiment: Opsonophagocytosis / bactericidal activity in vitro, heterologous GAS M type M43; assay type: cell-based, Group A streptococci
Procedure: (§4) Opsonophagocytosis assays were performed as previously described in Lancefield, R. C., Persistence of type-specific antibodies in man following infection with group A streptococci, 1959, J. Immunol., 89:307. Briefly, diluted serum (50 μl) was added to mid-log phase GAS (10^3 CFU) in Todd-Hewitt broth (50 μl) and whole, heparinized blood (500 μl) from a nonopsonic human donor. Mixtures were briefly vortexed and placed at 37° C. in a shaker for 3 hours. Dilutions were then plated on trypticase soy agar plates (5% sheep blood) to quantitate viable organisms. The % killing is expressed as [(CFU control-CFU test)/CFU control]×100.
(§5) Some of the peptides tested in the previous examples were tested for cross-type protection using the methods described above. […] The peptide tested and serotype against which it was tested is indicated.

GAS M type M3 or M43 = experiment: Reduction of colonization in mice, colonizing GAS M type M3 or M43; assay type: in vivo
Procedure: as §1, §2
Some of the peptides were tested for reduction of colonization of GAS in mice. […] The peptides were administered together but were not chemically combined in any way. […] Some of the mice were colonized by M3, and some of the mice were colonized by M43.

GAS = experiment: Opsonophagocytosis assay in vitro with sera of immunized mice; assay type: cell-based, Group A streptococci; conditions: human whole blood, 3 hours
Procedure: as §4
Each of the sera tested positive in the assay and was able to reduce the amount of viable bacteria relative to controls.

GAS M type M3 = experiment: Opsonophagocytosis / bactericidal activity in vitro, GAS M type M3; assay type: cell-based, Group A streptococci
Procedure: as §4, §5

GAS M type M12 = experiment: Opsonophagocytosis / bactericidal activity in vitro, GAS M type M12; assay type: cell-based, Group A streptococci
Procedure: as §4, §5

GAS M type M1 [3] = experiment: Opsonophagocytosis / bactericidal activity in vitro, GAS M type M1; assay type: cell-based, Group A streptococci
Procedure: as §4, §5

GAS M type M1 [4] = experiment: Reduction of colonization in mice, colonizing GAS M type M1; assay type: in vivo

## CGEFPRHVKLKNEIENLLDQV [Peptide M3-2]
Streptococci (GAS)
  Reduction of colonization: 67%
[1]
  immunoreactivity of peptide with anti-M protein rabbit sera (ELISA): highest reactivity
[2]
  ELISA (elicitation of antibodies): yes
GAS M type M43; in vitro versus control
  reduction of M43 type bacteria: significantly reduce
GAS M type M43; in vitro, heterologous GAS M type M43
  % CFU reduction: 60-80%
GAS M type M3 or M43; mice colonized by M3 or M43
  cross-type protection in vivo: capable in vivo of cross-type protection
GAS M type M3 or M43; mice, colonizing GAS M type M3 or M43, reduction overall
  % CFU reduction: 67% (P < 0.30)
GAS
  Opsono (in vitro): yes
GAS M type M3; in vitro versus control
  reduction of M3 type bacteria: significantly reduce
GAS M type M3; in vitro, GAS M type M3
  % CFU reduction: 90-95%

## CDHSDLVAEKQRLEDLGQKFE [Peptide M12-1]
[1]
  immunoreactivity of peptide with anti-M protein rabbit sera (ELISA): highest reactivity
[2]
  ELISA (elicitation of antibodies): yes
GAS M type M12
  % CFU reduction: 70-80%
GAS
  Opsono (in vitro): yes

## CIRLRHENKDLKARLENAMEV [Peptide M1-3]
[1]
  immunoreactivity by ELISA using rabbit sera prepared against whole M protein: confirmed
[2]
  ELISA (elicitation of antibodies): yes
GAS M type M1 [3]
  % CFU reduction: 80-95%
GAS
  Opsono (in vitro): yes
GAS M type M1 [4]
  % CFU reduction: 90% (P < 0.10)
